According to publication PMC5773572, “High-throughput analysis using non-depletive SPME: challenges and applications to the determination of free and total concentrations in small sample volumes” (Scientific Reports, 2018):

Assays:
5% calf serum in PBS [1] = assay: Protein binding by rapid equilibrium dialysis (RED) in 5% calf serum; assay type: in vitro ADME; details: 8K MWCO
Experimental: Equipments. […] Impact™ protein precipitation plates were purchased from Phenomenex (Torrance, CA, USA). Sample preparation for RED. […] RED protocol. […] Aliquots (400µL) of the spiked treatment medium solutions were added to the donor wells followed by the addition of600µL of blank medium to the acceptor cells. […] The experiment was performed in triplicate for all compounds and concentrations.

5% calf serum in PBS [2] = assay: Protein binding by high-throughput SPME fiber method in 5% calf serum in PBS
Experimental: The SPME experimental workflow consisted of five major steps. First, prior to extraction, fibers were conditioned in 100 µL of desorption solution ACN/H2O (80/20, v/v), which was acidified to contain 0.1% (v/v) formic acid. The second step, occurring prior to extraction, involved submersing the fiber in 100 µL of ultrapure water to remove traces of solvent from the extraction phase. This step was performed for 10 seconds using 100 rpm agitation, with water temperature set to 37 °C in order to avoid a temperature gradient between the fiber and the sample, as this could influence the initial uptake of analytes. […] This step was critical, as it ensured that there were no traces of binding components remaining on the coating that could interfere with the quantitation of analytes extracted by the SPME fiber. […]
(§1) The reliability of the new fiber-based SPME high-throughput method was tested by applying it to the determination of the protein binding (PB) percentages of the selected analytes. […] The protein binding of each compound was calculated using the slope ratios of the linear portions of the calibration curves. […]
The developed SPME method was further evaluated using a matrix consisted of 5% CS in PBS to mimic conditions typically used in in vitro cell assay applications. […]

calf serum (CS) = assay: Protein binding by ultra-thin coated HLB fiber SPME, slope ratio of calibrations in PBS vs 100% calf serum; details: 100% calf serum vs PBS pH 7.4; fiber SPME, 5 min extraction, 37 °C, 100 µL sample
Experimental: (§2) The SPME experimental workflow consisted of five major steps. First, prior to extraction, fibers were conditioned in 100 µL of desorption solution ACN/H2O (80/20, v/v), which was acidified to contain 0.1% (v/v) formic acid. The second step, occurring prior to extraction, involved submersing the fiber in 100 µL of ultrapure water to remove traces of solvent from the extraction phase. This step was performed for 10 seconds using 100 rpm agitation, with water temperature set to 37 °C in order to avoid a temperature gradient between the fiber and the sample, as this could influence the initial uptake of analytes. Following, extraction was performed on 100 µL of sample for 5 min, with samples thermostated to 37 °C, using 100 rpm agitation, prior to extraction. The fourth step consisted of a second rinsing of the fiber with 100 µL of water for 10 seconds to remove matrix components from the fiber. This step was critical, as it ensured that there were no traces of binding components remaining on the coating that could interfere with the quantitation of analytes extracted by the SPME fiber. […]
as §1

[3] = as above; details: bovine (calf), 100% calf serum, pH 7.4
Experimental: as §2, §1

plasma proteins = details: value reported in the literature, used to calculate the expected free amount; cited from earlier work

SMILES	binding values in 5% CS (RED) (5% calf serum in PBS [1]) [%]	PB values in 5% CS (SPME) (5% calf serum in PBS [2]) [%]	protein binding (PB) (calf serum (CS)) [%]	fraction unbound at 5 min [3]	Protein binding (plasma proteins) [%]
CCN(CC)C(=O)c1cccc(C)c1 [DEET, N,N-Diethyl-meta-toluamide]	< 10	38	71		
O=C(O)Cc1ccccc1Nc1c(Cl)cccc1Cl [Diclofenac, diclofenac]	91			0.02	
CN1CCCC1c1cccnc1 (racemic) [Nicotine, (±) nicotine]	< 10	8			<10
